# Assay results published in US10155754B2, “Substituted 2-imino-1,3-thiazolidin-4-ones as N-arachidonoylethanolamine cellular uptake inhibitors” (UNIVERSITAT BERN, priority 2014, dated 2018).
# pIC50: −log10 of the molar value.
# Tests used:
# [1] = test system: AEA cellular uptake (U937 cells); test: [3H]-AEA cellular uptake inhibition in U937 cells; type: cell-based; conditions: Homo sapiens, U-937, U937 cells, final 100 nM AEA with 0.5 nM [3H]-AEA, 15 min at 37° C.; read-out: AEA uptake IC50
# In short: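 U937 cells (0.5×10^6 per sample) pre-incubated with compound (100 pM–100 μM, triplicates) for 15 min at 37 °C, then given 100 nM AEA including 0.5 nM [3H]-AEA for 15 min. Filtration, washing and scintillation counting of cell-associated radioactivity; IC50 by four-parameter nonlinear regression.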
# FAAH = target: T1, FAAH (Homo sapiens, UniProt O00519); test: FAAH activity: hydrolysis of [3H]-AEA in U937 cell homogenates; type: biochemical; conditions: [3H]-AEA hydrolysis, final 100 nM AEA, read-out: FAAH inhibition IC50
# T1 construct: endogenous in cells; host or cells: U937 cell homogenate
# T1 sequence (O00519 1-579): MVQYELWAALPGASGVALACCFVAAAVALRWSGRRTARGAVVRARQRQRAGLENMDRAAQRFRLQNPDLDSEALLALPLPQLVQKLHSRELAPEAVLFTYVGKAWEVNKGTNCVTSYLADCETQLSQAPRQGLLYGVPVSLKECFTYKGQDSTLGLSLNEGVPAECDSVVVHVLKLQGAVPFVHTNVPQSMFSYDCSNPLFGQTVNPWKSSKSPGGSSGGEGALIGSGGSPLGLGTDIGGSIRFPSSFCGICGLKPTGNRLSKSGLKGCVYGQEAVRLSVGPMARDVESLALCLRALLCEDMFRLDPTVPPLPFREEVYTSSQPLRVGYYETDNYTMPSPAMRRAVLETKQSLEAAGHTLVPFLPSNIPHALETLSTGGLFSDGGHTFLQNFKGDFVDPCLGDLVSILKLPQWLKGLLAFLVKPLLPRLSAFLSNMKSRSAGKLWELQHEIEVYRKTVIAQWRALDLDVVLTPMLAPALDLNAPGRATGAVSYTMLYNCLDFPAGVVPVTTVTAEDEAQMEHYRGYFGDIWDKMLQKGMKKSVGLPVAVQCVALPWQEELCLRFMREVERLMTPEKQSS
# Description: Hydrolysis of [^3H]-AEA by FAAH was determined as previously described in cell homogenates of U937 cells (0.18 mg protein) (Omeir et al., 1999, Biochem Biophys Res Commun, 264, 316-20; Mor et al., 2004, J Med Chem, 47, 4998-5008). Protein amounts of cell homogenates corresponded to 0.5×10^6 cells (U937), to assure best possible comparability of IC50 values as used for the AEA cellular uptake assays. URB597 was used as positive control. Protein quantification was performed using a BCA assay (Thermo Scientific). Enzyme activity was assessed by addition of vehicle or compounds in 10 μL DMSO to 490 μL homogenate in 10 mM Tris HCl, 1 mM EDTA, 0.1% (w/v) BSA fatty acid free, pH=8 and incubation for 15 min at 37° C. After, a mixture of AEA plus [ethanolamine-1-^3H]-AEA (0.5 nM) at final 100 nM was added to the homogenates and incubated for 15 min at 37° C. The reaction was stopped by addition of 1 mL ice-cold CHCl3:MeOH (1:1) followed by vigorous vortexing. Phase separation was achieved by centrifugation at 10'000×g at 4° C. for 10 min. Radioactivity of the separated aqueous phase (upper phase) containing [^3H-ethanolamine] or [^3H-glycerol] was measured by liquid scintillation counting on a Tri-Carb 2100 TR liquid scintillation analyzer after addition of 3.5 mL Ultima Gold scintillation cocktail (PerkinElmer Life Sciences). Results are expressed as hydrolysis of tritium substrate in percent of vehicle treated control. IC50 values were calculated by GraphPad®. Data are reported as means of n=3 independent experiments performed in triplicates.
compound,measurement,setting,value
"O=C1/C(=C/c2ccc3ncsc3c2)S/C(=N\c2ccccc2)N1c1ccccc1 [compound 32, (2Z,5Z)-5-((benzo[d]thiazol-6-yl)methylene)-3-phenyl-2-(phenylimino)thiazolidin-4-one]",pIC50,[1],6.54
same,pIC50,FAAH,< 4.00
